Data on 3 compounds can be found in patent US20230020320A1, “Liquid Composition for Cleaning, Sanitizing and/or Disinfecting” (CORTICALIS AS, priority 2020, published 2023).

The subject of assay [1] is non-spore forming bacteria. The conditions noted are these: in less than 30 seconds, in the laboratory and on human skin; cited from earlier work.
The test system of assay [2] is S. epidermidis. The experiment in a line: Regrowth of luciferase-harbouring bacteria on sanitized titanium surfaces, fluorometer. The settings on record: 5 minutes in sanitizing solution; for Time until regrowth of the biofilm after cleaning: then BHI medium at 37 centigrade, hourly reading. The assay is classed as cell-based. As for the experimental part: Regrowth of S. epidermidis after sanitizing a contaminated titanium surface Regrowth of S. epidermidis bacteria harbouring the luciferase gene making them fluorescent, on sanitized titanium surfaces. Surfaces was first contaminated with bacteria and incubated in BHI broth until the surfaces were completely covered in biofilm. The titanium discs were then submerged in sanitizing solution and left on a slow shaker for 5 minutes. After sanitizing the discs were rinsed in a large volume of sterile water, then covered by BHI medium again and incubated at 37 centigrade. At hourly intervals the discs were placed in a fluorometer to measure regrowth of bacteria by amount of fluorescent as compared to an untreated calibrated control and a sterile disc.

The conditions of assay [3]: cited from earlier work.
In assay [4] the test system is S. epidermidis. In words: Staining of living and dead bacteria on decontaminated titanium surfaces, confocal microscope. The conditions noted are these: submerged in sanitizing solution 5 minutes on slow shaker. The assay is classed as cell-based. As for the experimental part:
Titanium surfaces contaminated with S. epidermidis bacteria and grown to biofilm in BHI broth was removed from growth medium and submerged in sanitizing solution for 5 minutes on a slow shaker. Discs were sanitized with A) saline (Negative control), B) Chlorhexidine 0.2% w/v, or C) H2O2 3% v/v+f-127 pluronic Acid 5% w/v. After cleaning the surfaces were stained with fluorescent dyes, green for living microbes and red for dead microbes. […] Surfaces were visualized in a confocal microscope after cleaning and staining (FIG. 4).

“Also recorded” adds a separate entry of the source. Like-named read-outs stand apart in the source and are kept apart here.

For `CC(C)O` [Isopropyl alcohol], the “Non-spore forming bacteria killed” value in assay [1] is on record as at least 99.99%.

In the case of `OO` [hydrogen peroxide, Hydrogen peroxide], the “Time until regrowth of the biofilm after cleaning” value in assay [2] is on record as “about 13 hours”. Besides, the “Effect on wound healing” value in assay [3] (0.03% v/v solution, only if not applied repeatedly) is given as “may induce healing”; in assay [3] (0.5% v/v solution), “impede healing”.

As for `N=C(NCCCCCCNC(=N)NC(=N)Nc1ccc(Cl)cc1)NC(=N)Nc1ccc(Cl)cc1` [Chlorhexidine 0.2% w/v, Chlorhexidine], in assay [4], the “Killing of microbes (green living / red dead staining)” value is listed as “killed all microbes; also recorded: killed all bacteria” and the “Removal of biofilm/contamination from titanium surface” value is on record as “left the dead cells to contaminate the surface; also recorded: left them to contaminate the surface”. Moreover, in assay [2], the “Biofilm remaining on the surface” value was “the dead biofilm stuck and remained on the surface”; the Killing of bacteria entry is recorded as “killed all bacteria”; the “Time until regrowth of the biofilm after cleaning” value is on record as “no regrowth observed”.
